ChEMBL document CHEMBL1201862, “PubChem BioAssay data set” (2004)
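Step 1: Grow cells in 96-well plates. Step 2: Expose to compound for 48 hours at 5 concentrations. Step 3: Interpolate endpoints linearly; if unreached, use highest concentration. GI50 = concentration required for 50% inhibition of growth.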 Activity calls are given as the source filed them. Cut-off read from the data, not from the text of the source: active = GI50 up to about 1.1 µM and inactive = higher.

Experiments:
Assay in all cases: DTP human tumour cell line panel, 48 h
[1] = system: A549
[2] = system: SF-295
[3] = system: CAKI-1
[4] = system: T47D
[5] = system: 786-0
[6] = system: HCT-15
[7] = system: DU-145
[8] = system: U-251
[9] = system: NCI-H226
[10] = system: SK-MEL-5
[11] = system: EKVX
[12] = system: NCI-H460
[13] = system: SF-539
[14] = system: SR
[15] = system: RXF 393
[16] = system: COLO 205
[17] = system: OVCAR-3
[18] = system: LOX IMVI
[19] = system: K562
[20] = system: MDA-MB-435
[21] = system: HOP-92
[22] = system: HOP-62
[23] = system: BT-549
[24] = system: NCI-H522
[25] = system: NCI/ADR-RES
[26] = system: SW-620
[27] = system: OVCAR-5
[28] = system: HCT-116
[29] = system: UACC-62
[30] = system: MDA-MB-231
[31] = system: A498
[32] = system: OVCAR-8
[33] = system: HCC 2998
[34] = system: SNB-19
[35] = system: OVCAR-4
[36] = system: SNB-75
[37] = system: MCF7
[38] = system: M14
[39] = system: TK-10
[40] = system: UO-31
[41] = system: KM12
[42] = system: Hs-578T
[43] = system: MDA-N
[44] = system: SK-MEL-28
[45] = system: SN12C
[46] = system: RPMI-8226
[47] = system: UACC-257
[48] = system: SF-268
[49] = system: HT-29
[50] = system: PC-3
[51] = system: IGROV-1
[52] = system: MOLT-4
[53] = system: SK-MEL-2
[54] = system: NCI-H23
[55] = system: ACHN
[56] = system: SK-OV-3
[57] = system: HL-60
[58] = system: CCRF-CEM
[59] = system: Malme-3M
[60] = system: M19-MEL
[61] = system: DLD-1
[62] = system: KM-20L2

For `O=C1SC(SCc2ccccc2)=NC12CC2c1ccccc1` (configuration not stated), the GI50 [1] was 26.9 µM (inactive), the GI50 [2] was 19.7 µM (inactive) and the GI50 [3] was 20 µM (inactive). The GI50 [4] was 28.5 µM (inactive), the GI50 [5] was 19.4 µM (inactive) and the GI50 [6] was 20.4 µM. The GI50 [7] was 29 µM (inactive), the GI50 [8] was 18.3 µM (inactive) and the GI50 [9] was 23.6 µM (inactive). For the same compound, the GI50 [10] was 17.8 µM (inactive), the GI50 [11] was 20.2 µM (inactive) and the GI50 [12] was 18.7 µM (inactive). For the same compound, the GI50 [13] was 20.7 µM (inactive), the GI50 [14] was 21.3 µM (inactive) and the GI50 [15] was 18.7 µM (inactive). The GI50 [16] was 23.4 µM (inactive), the GI50 [17] was 27.7 µM (inactive) and the GI50 [18] was 18.8 µM (inactive). For the same compound, the GI50 [19] was 19.5 µM (inactive), the GI50 [20] was 22.1 µM (inactive) and the GI50 [21] was 17.1 µM (inactive). The GI50 [22] was 29 µM (inactive), the GI50 [23] was 20.2 µM (inactive) and the GI50 [24] was 14.5 µM (inactive). The GI50 [25] was 23.9 µM (inactive), the GI50 [26] was 22.4 µM (inactive) and the GI50 [27] was 18.5 µM (inactive). The GI50 [28] was 16.6 µM (inactive), the GI50 [29] was 17.1 µM (inactive) and the GI50 [30] was 20.3 µM (inactive). The GI50 [31] was 25.5 µM (inactive), the GI50 [32] was 19.4 µM (inactive) and the GI50 [33] was 7.62 µM (inactive). For the same compound, the GI50 [34] was 26.7 µM (inactive), the GI50 [35] was 16 µM (inactive) and the GI50 [36] was 29.2 µM (inactive). For the same compound, the GI50 [37] was 18.8 µM (inactive), the GI50 [38] was 17.4 µM (inactive) and the GI50 [39] was 25.6 µM (inactive). The GI50 [40] was 19.5 µM (inactive), the GI50 [41] was 17.7 µM (inactive) and the GI50 [42] was 24.3 µM (inactive). For the same compound, the GI50 [43] was 20.9 µM (inactive), the GI50 [44] was 19 µM (inactive) and the GI50 [45] was 20 µM (inactive). The GI50 [46] was 16.7 µM (inactive), the GI50 [47] was 16.8 µM (inactive) and the GI50 [48] was 27 µM (inactive). For the same compound, the GI50 [49] was 21.3 µM (inactive), the GI50 [50] was 23.3 µM (inactive) and the GI50 [51] was 21.4 µM (inactive). For the same compound, the GI50 [52] was 1.34 µM (inactive), the GI50 [53] was 18.7 µM (inactive) and the GI50 [54] was 20.1 µM (inactive). The GI50 [55] was 17.9 µM (inactive), the GI50 [56] was 37.7 µM (inactive) and the GI50 [57] was 3.56 µM (inactive). For the same compound, the GI50 [58] was 2.93 µM (inactive) and the GI50 [59] was 17.7 µM (inactive).
For `COc1cc(C2c3cc4c(cc3[C@@H](NC3CCN(Cc5ccccc5)CC3)C3COC(=O)[C@H]23)OCO4)cc(OC)c1O` (some centres not stated), the GI50 [1] was 0.0133 µM (active), the GI50 [2] was 0.0311 µM (active) and the GI50 [6] was 0.132 µM. The GI50 [9] was 0.0137 µM (active), the GI50 [13] was 0.0706 µM (active) and the GI50 [17] was 0.277 µM (active). For the same compound, the GI50 [60] was 0.308 µM (active), the GI50 [22] was 0.0282 µM (active) and the GI50 [27] was 0.34 µM (active). For the same compound, the GI50 [28] was 0.195 µM (active), the GI50 [61] was 0.408 µM (active) and the GI50 [31] was 0.136 µM (active). For the same compound, the GI50 [62] was 0.354 µM (active), the GI50 [32] was 0.161 µM (active) and the GI50 [33] was 0.274 µM (active). The GI50 [34] was 0.177 µM (active), the GI50 [41] was 0.33 µM (active) and the GI50 [44] was 0.627 µM (active). For the same compound, the GI50 [48] was 0.203 µM (active), the GI50 [49] was 0.243 µM (active) and the GI50 [56] was 0.0457 µM (active). For the same compound, the GI50 [57] was 0.0189 µM (active) and the GI50 [58] was 0.0251 µM (active).
